From paper PMC9516332 (Frontiers in Oncology, 2022)
Where two headings read alike, the source gives them in different places.

How the values were obtained:
[1] = biological target: panel of 255 wild-type kinases (Homo sapiens, UniProt Q96RG2); settings: cited from earlier work
[2] = biological target: panel of 255 wild-type kinases (Homo sapiens, UniProt Q9UBS0); settings: cited from earlier work
[3] = biological target: panel of 255 wild-type kinases (Homo sapiens, UniProt P51617); settings: cited from earlier work
[4] = biological target: panel of 255 wild-type kinases (Homo sapiens, UniProt P49137); settings: cited from earlier work
[5] = biological target: panel of 255 wild-type kinases (Homo sapiens, UniProt O60674); settings: cited from earlier work
[6] = biological target: T1, panel of 255 wild-type kinases (Homo sapiens, UniProt P29322); settings: cited from earlier work
T1 sequence (P29322 28-1005): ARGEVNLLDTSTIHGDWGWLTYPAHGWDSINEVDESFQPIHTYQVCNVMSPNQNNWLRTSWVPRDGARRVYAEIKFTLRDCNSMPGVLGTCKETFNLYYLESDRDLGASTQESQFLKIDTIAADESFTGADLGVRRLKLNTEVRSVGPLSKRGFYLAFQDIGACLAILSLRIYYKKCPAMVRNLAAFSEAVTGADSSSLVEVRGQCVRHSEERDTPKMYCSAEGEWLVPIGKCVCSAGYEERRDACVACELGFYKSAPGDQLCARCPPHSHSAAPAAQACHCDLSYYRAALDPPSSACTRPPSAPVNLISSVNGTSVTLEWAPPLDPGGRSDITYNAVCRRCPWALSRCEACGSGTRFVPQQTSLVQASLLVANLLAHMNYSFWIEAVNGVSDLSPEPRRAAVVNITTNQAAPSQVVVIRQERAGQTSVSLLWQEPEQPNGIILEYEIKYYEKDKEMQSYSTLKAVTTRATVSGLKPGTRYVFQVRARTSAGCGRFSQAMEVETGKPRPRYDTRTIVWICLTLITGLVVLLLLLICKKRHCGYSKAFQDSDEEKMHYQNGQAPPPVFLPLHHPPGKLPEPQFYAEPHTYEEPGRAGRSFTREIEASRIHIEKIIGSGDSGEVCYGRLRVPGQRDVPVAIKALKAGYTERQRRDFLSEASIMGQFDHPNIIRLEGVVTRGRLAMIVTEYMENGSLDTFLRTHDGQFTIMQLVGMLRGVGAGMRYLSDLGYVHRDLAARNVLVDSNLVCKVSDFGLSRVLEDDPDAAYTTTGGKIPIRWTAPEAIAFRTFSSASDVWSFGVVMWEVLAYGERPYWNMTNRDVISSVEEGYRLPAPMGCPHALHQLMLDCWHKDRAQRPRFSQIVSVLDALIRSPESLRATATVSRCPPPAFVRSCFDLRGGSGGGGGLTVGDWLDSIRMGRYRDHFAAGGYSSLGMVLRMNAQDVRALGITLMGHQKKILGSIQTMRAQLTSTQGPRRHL

[7] = biological target: panel of 255 wild-type kinases (Homo sapiens, UniProt P16234); settings: cited from earlier work
[8] = biological target: panel of 255 wild-type kinases (Homo sapiens, UniProt P04626); settings: cited from earlier work
[9] = biological target: panel of 255 wild-type kinases (Homo sapiens, UniProt P12931); settings: cited from earlier work
[10] = system: 134 cancer cell lines
[11] = biological target: panel of 255 wild-type kinases (Homo sapiens, UniProt Q92918); assay: Kinase panel profiling at 1 µmol/L (MSA or IMAP), percentage inhibition; format: biochemical; settings: read-out: %-inhibition at 1 µmol/L, HPK1
[12] = PASK, 1 µmol/L single concentration, ref DOI: 10.1158/1535-7163.MCT-18-0877
[13] = p70S6Kβ, 1 µmol/L single concentration, ref DOI: 10.1158/1535-7163.MCT-18-0877
[14] = kinase IRAK1, 1 µmol/L single concentration, ref DOI: 10.1158/1535-7163.MCT-18-0877
[15] = kinase MAPKAPK2, 1 µmol/L single concentration, ref DOI: 10.1158/1535-7163.MCT-18-0877
[16] = kinase JAK2, 1 µmol/L single concentration, ref DOI: 10.1158/1535-7163.MCT-18-0877
[17] = kinase EPHA8, 1 µmol/L single concentration, ref DOI: 10.1158/1535-7163.MCT-18-0877
[18] = kinase PDGFRα, 1 µmol/L single concentration, ref DOI: 10.1158/1535-7163.MCT-18-0877
[19] = kinase HER2, 1 µmol/L single concentration, ref DOI: 10.1158/1535-7163.MCT-18-0877
[20] = kinase SRC, 1 µmol/L single concentration, ref DOI: 10.1158/1535-7163.MCT-18-0877
[21] = kinase HPK1, 1 µmol/L single concentration
[22] = PASK, 1 µmol/L single concentration, ref DOI: 10.1371/journal.pone.0092146
[23] = p70S6Kβ, 1 µmol/L single concentration, ref DOI: 10.1371/journal.pone.0092146
[24] = kinase IRAK1, 1 µmol/L single concentration, ref DOI: 10.1371/journal.pone.0092146
[25] = kinase EPHA8, 1 µmol/L single concentration, ref DOI: 10.1371/journal.pone.0092146
[26] = kinase PDGFRα, 1 µmol/L single concentration, ref DOI: 10.1371/journal.pone.0092146

CC#CC(=O)N1CCC[C@H]1c1nc(-c2ccc(C(=O)Nc3ccccn3)cc2)c2c(N)nccn12 [acalabrutinib]
%-inhibition, PASK [1, 12]: -5.37% | %-inhibition, p70S6Kβ [2, 13]: -14% | %-inhibition at 1 µmol/L, IRAK1 [3, 14]: -7% | %-inhibition at 1 µmol/L, MAPKAPK2 [4, 15]: -21% | %-inhibition at 1 µmol/L, JAK2 [5, 16]: -9% | %-inhibition at 1 µmol/L, EPHA8 [6, 17]: 6.51% | %-inhibition at 1 µmol/L, PDGFRα [7, 18]: 1.38% | %-inhibition at 1 µmol/L, HER2 [8, 19]: 16% | %-inhibition at 1 µmol/L, SRC [9, 20]: 10%

CCc1cc2c(cc1N1CCC(N3CCOCC3)CC1)C(C)(C)c1[nH]c3cc(C#N)ccc3c1C2=O [alectinib]
%-inhibition, PASK [1, 12]: -2.6% | %-inhibition, p70S6Kβ [2, 13]: 9% | %-inhibition at 1 µmol/L, IRAK1 [3, 14]: 92% | %-inhibition at 1 µmol/L, MAPKAPK2 [4, 15]: -5.66% | %-inhibition at 1 µmol/L, JAK2 [5, 16]: -3% | %-inhibition at 1 µmol/L, EPHA8 [6, 17]: 12% | %-inhibition at 1 µmol/L, PDGFRα [7, 18]: 43% | %-inhibition at 1 µmol/L, HER2 [8, 19]: -1.77% | %-inhibition at 1 µmol/L, SRC [9, 20]: 10%

Cc1nc(NC(=O)N2CCC[C@H]2C(N)=O)sc1-c1ccnc(C(C)(C)C(F)(F)F)c1 [alpelisib]
IC50 [10]: 534 nM

Cn1cc(-c2cc3c(N4CCN(c5ncc([C@@](C)(N)c6ccc(F)cc6)cn5)CC4)ncnn3c2)cn1 [avapritinib]
inhibition at 1 µM [11, 21]: 15%

COc1cc(N2CCC(N3CCN(C)CC3)CC2)ccc1Nc1ncc(Cl)c(Nc2ccccc2P(C)(C)=O)n1 [brigatinib]
%-inhibition, PASK [1]: -5% | %-inhibition, p70S6Kβ [2]: 98% | %-inhibition at 1 µmol/L, IRAK1 [3]: 69% | %-inhibition at 1 µmol/L, MAPKAPK2 [4]: -14% | %-inhibition at 1 µmol/L, JAK2 [5]: 90% | %-inhibition at 1 µmol/L, EPHA8 [6]: 6.55% | %-inhibition at 1 µmol/L, PDGFRα [7]: 96% | %-inhibition at 1 µmol/L, HER2 [8]: 69% | %-inhibition at 1 µmol/L, SRC [9]: 65%

CNC(=O)c1ccc(-c2cnc3ncc(Cc4ccc5ncccc5c4)n3n2)cc1F [capmatinib]
inhibition at 1 µM [11]: 0.392%

C[C@@H](Oc1cc(-c2cnn(C3CCNCC3)c2)cnc1N)c1c(Cl)ccc(F)c1Cl [crizotinib]
%-inhibition, PASK [1, 22]: 1% | %-inhibition, p70S6Kβ [2, 23]: 6% | %-inhibition at 1 µmol/L, IRAK1 [3, 24]: 92% | %-inhibition at 1 µmol/L, MAPKAPK2 ([4]; kinase MAPKAPK2, 1 µmol/L single concentration, ref DOI: 10.1371/journal.pone.0092146): -17% | %-inhibition at 1 µmol/L, JAK2 ([5]; kinase JAK2, 1 µmol/L single concentration, ref DOI: 10.1371/journal.pone.0092146): 98% | %-inhibition at 1 µmol/L, EPHA8 [6, 25]: 82% | %-inhibition at 1 µmol/L, PDGFRα [7, 26]: 49% | %-inhibition at 1 µmol/L, HER2 [8]: -0.714%

CC(C)(C)c1nc(-c2cccc(NS(=O)(=O)c3c(F)cccc3F)c2F)c(-c2ccnc(N)n2)s1 [dabrafenib]
%-inhibition, PASK [1, 22]: 1.12% | %-inhibition, p70S6Kβ [2, 23]: -0.554% | %-inhibition at 1 µmol/L, IRAK1 [3, 24]: -48% | %-inhibition at 1 µmol/L, EPHA8 [6, 25]: 35% | %-inhibition at 1 µmol/L, PDGFRα [7, 26]: 63% | %-inhibition at 1 µmol/L, HER2 ([8]; kinase HER2, 1 µmol/L single concentration, ref DOI: 10.1371/journal.pone.0092146): 50% | %-inhibition at 1 µmol/L, SRC ([9]; kinase SRC, 1 µmol/L single concentration, ref DOI: 10.1371/journal.pone.0092146): 68% | IC50 [10]: 1080 nM

COc1cc2ncnc(Nc3ccc(F)c(Cl)c3)c2cc1NC(=O)/C=C/CN1CCCCC1 [dacomitinib]
IC50 [10]: 18 nM

C[C@H](Nc1ncnc2nc[nH]c12)c1cc2cccc(Cl)c2c(=O)n1-c1ccccc1 [duvelisib]
IC50 [10]: 4240 nM

COC(=O)N[C@@H](C)CNc1nccc(-c2cn(C(C)C)nc2-c2cc(Cl)cc(NS(C)(=O)=O)c2F)n1 [encorafenib]
IC50 [10]: 592 nM

CN1CCN(c2ccc(C(=O)Nc3n[nH]c4ccc(Cc5cc(F)cc(F)c5)cc34)c(NC3CCOCC3)c2)CC1 [entrectinib]
IC50 [10]: 7820 nM

CCc1nc(C(N)=O)c(Nc2ccc(N3CCC(N4CCN(C)CC4)CC3)c(OC)c2)nc1NC1CCOCC1 [gilteritinib]
IC50 [10]: 237 nM

C=CC(=O)N1CCC[C@@H](n2nc(-c3ccc(Oc4ccccc4)cc3)c3c(N)ncnc32)C1 [ibrutinib]
%-inhibition, PASK [1, 12]: -0.0437% | %-inhibition, p70S6Kβ [2, 13]: 0.87% | %-inhibition at 1 µmol/L, IRAK1 [3, 14]: -11% | %-inhibition at 1 µmol/L, MAPKAPK2 [4, 15]: -13% | %-inhibition at 1 µmol/L, JAK2 [5, 16]: 0.407% | %-inhibition at 1 µmol/L, EPHA8 [6, 17]: 55% | %-inhibition at 1 µmol/L, PDGFRα [7, 18]: 94% | %-inhibition at 1 µmol/L, HER2 [8, 19]: 100%

CCN1CCN(c2ccc(Nc3cc(N(C)C(=O)Nc4c(Cl)c(OC)cc(OC)c4Cl)ncn3)cc2)CC1 [infigratinib]
inhibition at 1 µM [11, 21]: 65% | IC50 [10]: > 3160 nM

O=C(Nc1cnn2ccc(N3CCC[C@@H]3c3cc(F)ccc3F)nc12)N1CC[C@H](O)C1 [larotrectinib]
inhibition at 1 µM [11, 21]: 1% | IC50 [10]: > 31600 nM

CCN1C(=O)N(c2c(F)c(OC)cc(OC)c2F)Cc2cnc3[nH]c(CN4CCOCC4)cc3c21 [pemigatinib]
inhibition at 1 µM [11, 21]: 21%

FC(F)(F)c1ccc(CNc2ccc(Cc3c[nH]c4ncc(Cl)cc34)cn2)cn1 [pexidartinib]
IC50 [10]: > 31600 nM

CO[C@]1(C(=O)N[C@@H](C)c2ccc(-n3cc(F)cn3)nc2)CC[C@H](c2nc(C)cc(Nc3cc(C)[nH]n3)n2)CC1 [pralsetinib]
inhibition at 1 µM [11, 21]: 50% | IC50 [10]: 2640 nM

COc1ccc(CN2C3CC2CN(c2ccc(-c4cc(OCC(C)(C)O)cn5ncc(C#N)c45)cn2)C3)cn1 [selpercatinib]
inhibition at 1 µM [11, 21]: 8.44% | IC50 [10]: 3850 nM

Cn1cnc2c(F)c(Nc3ccc(Br)cc3Cl)c(C(=O)NOCCO)cc21 [selumetinib]
inhibition at 1 µM [11, 21]: 9.49% | IC50 [10]: 99 nM

Cc1cc(Nc2ncnc3ccc(NC4=NC(C)(C)CO4)cc23)ccc1Oc1ccn2ncnc2c1 [tucatinib]
inhibition at 1 µM [11, 21]: 4% | IC50 [10]: 6880 nM

C=CC(=O)N1CCC([C@@H]2CCNc3c(C(N)=O)c(-c4ccc(Oc5ccccc5)cc4)nn32)CC1 [zanubrutinib]
inhibition at 1 µM [11, 21]: 1.75%
